Test results: ChEMBL document CHEMBL1201862, “PubChem BioAssay data set” (2004)
Active and inactive are the calls of the source.

Key:
Cytochrome P450 2C9 = Cytochrome P450 2C9 (Homo sapiens, UniProt P11712)
Cytochrome P450 2D6 = Cytochrome P450 2D6 (Homo sapiens, UniProt P10635);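 also: CYP2D6 member of a cytochrome P450 panel assay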
Cytochrome P450 3A4 = Cytochrome P450 3A4 (Homo sapiens, UniProt P08684);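 also: CYP3A4 tested as one member of a cytochrome P450 panel screen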
[1] = target: Peroxisome proliferator-activated receptor gamma/Nuclear receptor coactivator 3 (Homo sapiens, UniProt P37231); assay: (§1) TR-FRET dose response biochemical High Throughput Screening assay for agonists of the steroid receptor coactivator 3 (SRC-3) recruitment by the peroxisome proliferator-activated receptor gamma (PPAR gamma): non-selective agonists. [Related pubchem assays: 1301 (Confirmation screen.), 1048 (Primary screen.)]; type: functional
[2] = target: Peroxisome proliferator-activated receptor gamma/Nuclear receptor coactivator 1 (Homo sapiens, UniProt P37231); assay: as §1, with “1 (SRC-1)” for “3 (SRC-3)”, “assays (depositor defined):AID1300, AID1808, AID504735, AID631]” for “assays: 1301 (Confirmation screen.), 1048 (Primary screen.)]”; type: protein assay
[3] = target: Peroxisome proliferator-activated receptor gamma/Nuclear receptor coactivator 2 (Homo sapiens, UniProt P37231); assay: TR-FRET dose response biochemical High Throughput Screening assay for agonists of the steroid receptor coactivator 2 (SRC-2) recruitment by the peroxisome proliferator-activated receptor gamma (PPAR gamma): non-selective agonists. [Related pubchem assays: 1297, 1032 ]; type: functional
[4] = luciferase reporter signal suppression in cells – H4 neuroglioma cells, luminescence, dose response (AID 1990); type: functional, cell-based
[5] = viability of uninfected HEp-2 cells – cell-based, HTS, cytotoxicity control for RSV inhibitor project, dose response (AID 2410); type: functional; conditions: human respiratory syncytial virus
[6] = toxicity toward HepG2 liver cells – cell-based, plate reader, cherry-pick, antagonist series, cytotoxicity control, dose response (AID 743416); type: functional
[7] = blockers of bursicon-stimulated LGR2 cAMP reporter – cell-based, HEK293, CRE-luciferase reporter, cherry pick, set 2, dose response (AID 743343); type: functional;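 also: transfected cells were stimulated with diluted bursicon conditioned medium after compound addition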
[8] = A549 cell cytotoxicity, dose response, cytotoxicity control, plate reader, cherry-pick, antagonist series (AID 743412); type: functional, cell-based
[9] = Luminescence Cell-Based Dose Response HTS to Identify Inhibitors of 5'UTR Stem-Loop Driven Prion Protein mRNA Translation in H4 Neuroglioblastoma Cells. [Related pubchem assays: 1827 (Project Summary), 1813 (Primary HTS)]; type: functional
HEK293 [10] = assay: EBV LMP1 TES2 canonical NF-kB signalling blockers – cell-based, HEK293, luciferase, cherry-pick, dose response (AID 588343); type: functional; conditions: Homo sapiens
[11] = blockade of melanocortin 4 receptor signaling – cell-based, plate reader, cherry pick, counter-screen for LGR2 antagonist project, dose response (AID 743444); type: functional;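 also: transfected HEK 293 cells stimulated with alpha-MSH peptide; potency of inhibitors of the alpha-MSH evoked signal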
[12] = alpha-synuclein stem-loop luciferase translation blockers – H4 neuroglioma cells, luminescence, confirmation (AID 1988); type: functional, cell-based
HEK293 [13] = assay: membrane integrity loss in HEK cells – cell-based, fluorescence, cytotoxicity control for IDE activator project, dose response (AID 588440); type: functional; conditions: Homo sapiens;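 also: cytotoxicity by LDH release measuring loss of membrane integrity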
HEK293 [14] = assay: optical interference in Abeta FP readout, dose response, artefact control for IDE activator project, biochemical, fluorescence polarization (AID 588442); type: functional, cell-based; conditions: Homo sapiens
[15] = target: T1, Voltage-gated N-type calcium channel alpha-1B subunit/Amyloid beta A4 precursor protein-binding family A member 1 (Homo sapiens, UniProt Q00975+Q02410); type: protein assay
T1 sequence (Q00975 whole entry): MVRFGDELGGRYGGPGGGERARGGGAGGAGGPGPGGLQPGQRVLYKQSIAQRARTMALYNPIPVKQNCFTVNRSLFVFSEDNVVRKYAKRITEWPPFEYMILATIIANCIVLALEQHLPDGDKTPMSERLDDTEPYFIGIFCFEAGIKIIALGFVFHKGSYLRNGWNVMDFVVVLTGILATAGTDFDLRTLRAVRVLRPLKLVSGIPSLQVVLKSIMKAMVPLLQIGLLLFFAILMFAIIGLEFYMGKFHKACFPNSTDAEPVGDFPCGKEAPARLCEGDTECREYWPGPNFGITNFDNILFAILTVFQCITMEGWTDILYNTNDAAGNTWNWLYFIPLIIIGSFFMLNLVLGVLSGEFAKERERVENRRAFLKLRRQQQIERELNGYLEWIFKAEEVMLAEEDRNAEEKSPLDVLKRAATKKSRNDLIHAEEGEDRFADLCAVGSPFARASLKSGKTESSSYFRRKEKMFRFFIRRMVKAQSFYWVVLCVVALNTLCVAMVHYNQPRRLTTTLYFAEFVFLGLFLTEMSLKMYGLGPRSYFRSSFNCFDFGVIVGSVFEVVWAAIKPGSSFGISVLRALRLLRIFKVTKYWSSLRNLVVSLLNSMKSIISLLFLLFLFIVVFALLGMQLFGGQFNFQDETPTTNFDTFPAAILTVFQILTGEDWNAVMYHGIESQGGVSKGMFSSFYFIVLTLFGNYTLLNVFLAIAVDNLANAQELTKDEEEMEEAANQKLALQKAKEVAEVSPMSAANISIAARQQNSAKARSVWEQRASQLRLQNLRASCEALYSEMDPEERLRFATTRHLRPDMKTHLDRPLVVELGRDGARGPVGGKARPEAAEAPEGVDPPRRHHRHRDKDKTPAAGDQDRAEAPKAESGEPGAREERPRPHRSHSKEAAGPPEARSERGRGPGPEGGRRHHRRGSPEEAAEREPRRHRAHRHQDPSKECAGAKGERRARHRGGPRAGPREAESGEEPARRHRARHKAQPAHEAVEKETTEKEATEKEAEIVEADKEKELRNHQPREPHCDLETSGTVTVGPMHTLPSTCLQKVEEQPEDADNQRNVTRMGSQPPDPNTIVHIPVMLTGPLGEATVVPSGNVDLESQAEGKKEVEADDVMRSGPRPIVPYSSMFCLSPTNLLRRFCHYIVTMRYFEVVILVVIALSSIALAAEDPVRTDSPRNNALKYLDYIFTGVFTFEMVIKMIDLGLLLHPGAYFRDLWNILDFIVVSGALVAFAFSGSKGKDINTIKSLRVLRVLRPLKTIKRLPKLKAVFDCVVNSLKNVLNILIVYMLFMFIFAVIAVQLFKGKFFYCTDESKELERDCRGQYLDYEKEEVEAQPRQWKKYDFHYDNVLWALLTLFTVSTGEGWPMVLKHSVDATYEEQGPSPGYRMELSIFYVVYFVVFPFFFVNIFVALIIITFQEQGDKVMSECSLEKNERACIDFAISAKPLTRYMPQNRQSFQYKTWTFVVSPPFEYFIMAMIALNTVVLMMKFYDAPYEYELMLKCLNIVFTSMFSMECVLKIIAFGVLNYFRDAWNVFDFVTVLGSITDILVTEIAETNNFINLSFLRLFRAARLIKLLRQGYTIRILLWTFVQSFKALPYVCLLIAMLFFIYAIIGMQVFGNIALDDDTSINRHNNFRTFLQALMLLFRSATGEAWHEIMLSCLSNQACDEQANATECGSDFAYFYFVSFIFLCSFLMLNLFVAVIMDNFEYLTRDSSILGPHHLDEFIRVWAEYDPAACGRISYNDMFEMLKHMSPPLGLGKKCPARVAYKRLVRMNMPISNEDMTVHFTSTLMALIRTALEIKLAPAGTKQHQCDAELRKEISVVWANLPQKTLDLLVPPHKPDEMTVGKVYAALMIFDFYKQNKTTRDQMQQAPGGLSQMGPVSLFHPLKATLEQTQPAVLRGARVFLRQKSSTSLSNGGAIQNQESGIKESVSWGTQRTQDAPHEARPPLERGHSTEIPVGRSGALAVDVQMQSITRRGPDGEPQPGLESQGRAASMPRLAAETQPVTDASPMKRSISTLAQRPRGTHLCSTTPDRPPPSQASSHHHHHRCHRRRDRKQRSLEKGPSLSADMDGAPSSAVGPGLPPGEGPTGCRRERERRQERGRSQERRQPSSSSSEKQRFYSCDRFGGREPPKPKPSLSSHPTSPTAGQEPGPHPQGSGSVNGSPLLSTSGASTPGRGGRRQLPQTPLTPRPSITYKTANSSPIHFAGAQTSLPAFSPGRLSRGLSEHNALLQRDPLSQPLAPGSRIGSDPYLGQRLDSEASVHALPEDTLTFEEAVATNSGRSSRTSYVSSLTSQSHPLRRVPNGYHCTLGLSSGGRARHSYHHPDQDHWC
T1 sequence (Q02410 whole entry): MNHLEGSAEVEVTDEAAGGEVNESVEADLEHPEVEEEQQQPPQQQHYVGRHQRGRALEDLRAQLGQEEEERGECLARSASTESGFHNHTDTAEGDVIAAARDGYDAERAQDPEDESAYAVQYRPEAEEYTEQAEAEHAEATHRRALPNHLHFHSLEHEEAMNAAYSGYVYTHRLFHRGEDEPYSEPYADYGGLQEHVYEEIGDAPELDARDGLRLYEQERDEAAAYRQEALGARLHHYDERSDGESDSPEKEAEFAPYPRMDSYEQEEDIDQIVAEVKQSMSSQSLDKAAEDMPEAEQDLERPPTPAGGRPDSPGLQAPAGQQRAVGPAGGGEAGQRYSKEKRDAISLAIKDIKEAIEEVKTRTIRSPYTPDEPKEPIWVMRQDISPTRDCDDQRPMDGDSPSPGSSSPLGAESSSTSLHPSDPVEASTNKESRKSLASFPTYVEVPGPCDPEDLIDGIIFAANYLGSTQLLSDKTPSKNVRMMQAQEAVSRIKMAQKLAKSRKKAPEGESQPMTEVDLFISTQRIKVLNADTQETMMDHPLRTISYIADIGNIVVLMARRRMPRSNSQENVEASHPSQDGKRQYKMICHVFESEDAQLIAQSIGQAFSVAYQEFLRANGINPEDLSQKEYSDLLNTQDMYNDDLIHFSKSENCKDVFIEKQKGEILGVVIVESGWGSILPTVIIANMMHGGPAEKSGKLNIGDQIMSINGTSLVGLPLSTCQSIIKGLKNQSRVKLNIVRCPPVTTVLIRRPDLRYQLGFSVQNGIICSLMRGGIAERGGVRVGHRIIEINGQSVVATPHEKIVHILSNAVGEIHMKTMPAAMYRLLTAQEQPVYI

[16] = target: T1, Voltage-gated N-type calcium channel alpha-1B subunit/Amyloid beta A4 precursor protein-binding family A member 1; type: protein assay; remark: listed apart in the source
Streptococcus = assay: GAS UMAA2166 growth inhibition – luminescence, BacTiterGlo, counter-screen for streptokinase expression inhibitor project, dose response (AID 1915); type: functional, organism-based;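 also: potency for reduction of bacterial viability or growth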
Streptokinase A = target: T2, Streptokinase A (Streptococcus pyogenes serotype M1, UniProt P10520); assay: viability-normalized secreted streptokinase activity reduction – plasminogen activation absorbance, OD405, dose response (AID 1914); type: functional, Streptococcus pyogenes M1 GAS;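 also: secreted streptokinase activity via plasminogen activation per viability signal from cell pellet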
T2 sequence (P10520 whole entry): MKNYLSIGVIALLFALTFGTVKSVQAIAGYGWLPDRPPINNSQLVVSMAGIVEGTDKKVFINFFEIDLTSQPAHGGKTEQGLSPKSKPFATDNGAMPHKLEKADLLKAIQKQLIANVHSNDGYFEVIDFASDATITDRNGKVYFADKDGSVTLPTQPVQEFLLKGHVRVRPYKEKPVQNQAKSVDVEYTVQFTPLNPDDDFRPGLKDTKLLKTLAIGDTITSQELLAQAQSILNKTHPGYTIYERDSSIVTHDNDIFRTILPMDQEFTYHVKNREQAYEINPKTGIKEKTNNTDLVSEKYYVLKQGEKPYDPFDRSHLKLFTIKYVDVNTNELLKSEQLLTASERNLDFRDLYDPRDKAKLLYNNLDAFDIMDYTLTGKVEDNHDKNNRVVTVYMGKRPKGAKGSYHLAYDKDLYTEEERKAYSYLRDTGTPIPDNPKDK

[17] = test system: Streptococcus sp. 'group A'; assay: Streptococcus pyogenes SK(-)GAS viability under kanamycin – luminescence, BacTiterGlo, confirmation, counter-screen for streptokinase expression inhibitor project, dose response (AID 1900); type: functional, organism-based
[18] = target: T3, Short transient receptor potential channel 4 (Mus musculus, UniProt Q9QUQ5); assay: block of DAMGO-driven TRPC4 calcium entry – cell-based, HEK293 TRPC4/mu-opioid, Fluo-4 calcium, dose response (AID 434942); type: functional;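 also: potency of inhibitors blocking the TRPC4 calcium response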
T3 sequence (Q9QUQ5 whole entry): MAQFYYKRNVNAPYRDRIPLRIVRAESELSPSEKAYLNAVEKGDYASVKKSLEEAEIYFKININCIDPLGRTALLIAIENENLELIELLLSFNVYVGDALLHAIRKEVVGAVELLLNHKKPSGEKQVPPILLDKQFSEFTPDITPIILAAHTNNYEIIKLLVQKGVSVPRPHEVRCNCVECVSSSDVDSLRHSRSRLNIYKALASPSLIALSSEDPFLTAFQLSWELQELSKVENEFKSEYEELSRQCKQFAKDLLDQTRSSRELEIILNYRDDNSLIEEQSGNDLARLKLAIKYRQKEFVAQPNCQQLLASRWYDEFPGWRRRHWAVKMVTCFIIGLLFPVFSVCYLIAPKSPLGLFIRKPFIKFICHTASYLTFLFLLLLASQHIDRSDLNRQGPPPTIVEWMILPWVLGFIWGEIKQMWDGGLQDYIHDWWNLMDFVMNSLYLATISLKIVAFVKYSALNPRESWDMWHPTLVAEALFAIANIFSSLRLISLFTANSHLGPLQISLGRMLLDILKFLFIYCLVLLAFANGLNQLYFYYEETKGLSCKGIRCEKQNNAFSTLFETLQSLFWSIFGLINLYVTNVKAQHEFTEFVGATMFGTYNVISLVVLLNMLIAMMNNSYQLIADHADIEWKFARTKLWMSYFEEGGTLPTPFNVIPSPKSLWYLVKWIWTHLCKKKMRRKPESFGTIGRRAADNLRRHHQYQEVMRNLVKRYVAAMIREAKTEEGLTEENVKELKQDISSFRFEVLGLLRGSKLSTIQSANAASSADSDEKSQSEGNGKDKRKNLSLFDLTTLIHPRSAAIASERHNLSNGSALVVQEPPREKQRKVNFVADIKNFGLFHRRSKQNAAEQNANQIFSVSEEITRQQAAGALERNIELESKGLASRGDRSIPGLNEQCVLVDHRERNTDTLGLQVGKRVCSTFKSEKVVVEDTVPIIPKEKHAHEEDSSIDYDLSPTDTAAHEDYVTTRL

[19] = target: T4, Heat shock factor protein 1 (Mus musculus, UniProt P38532); assay: decrease of HSF1-responsive luciferase luminescence – cell-based, NIH3T3, dose retest, confirmation (AID 2382); type: functional;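 also: NIH3T3 fibroblasts with HSF1-driven luciferase reporter stressed by proteasome inhibitor MG132; luminescence from HSF1-driven luciferase expression after 8 hours of MG132 stress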
T4 sequence (P38532 whole entry): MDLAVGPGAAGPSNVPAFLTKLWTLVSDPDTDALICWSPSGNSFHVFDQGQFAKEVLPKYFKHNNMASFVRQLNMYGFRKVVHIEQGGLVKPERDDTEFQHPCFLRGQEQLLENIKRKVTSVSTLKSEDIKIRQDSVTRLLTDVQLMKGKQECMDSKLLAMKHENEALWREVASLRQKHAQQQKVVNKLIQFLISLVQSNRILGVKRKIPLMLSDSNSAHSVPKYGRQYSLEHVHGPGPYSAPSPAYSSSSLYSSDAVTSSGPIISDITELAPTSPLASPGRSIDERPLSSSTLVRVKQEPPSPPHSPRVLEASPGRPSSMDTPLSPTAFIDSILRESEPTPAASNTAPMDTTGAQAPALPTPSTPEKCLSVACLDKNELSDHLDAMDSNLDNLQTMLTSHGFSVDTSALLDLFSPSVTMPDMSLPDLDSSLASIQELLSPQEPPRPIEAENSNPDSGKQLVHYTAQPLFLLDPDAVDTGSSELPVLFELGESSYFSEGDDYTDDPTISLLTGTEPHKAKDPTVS

Sequence of Cytochrome P450 2D6 (P10635 whole entry): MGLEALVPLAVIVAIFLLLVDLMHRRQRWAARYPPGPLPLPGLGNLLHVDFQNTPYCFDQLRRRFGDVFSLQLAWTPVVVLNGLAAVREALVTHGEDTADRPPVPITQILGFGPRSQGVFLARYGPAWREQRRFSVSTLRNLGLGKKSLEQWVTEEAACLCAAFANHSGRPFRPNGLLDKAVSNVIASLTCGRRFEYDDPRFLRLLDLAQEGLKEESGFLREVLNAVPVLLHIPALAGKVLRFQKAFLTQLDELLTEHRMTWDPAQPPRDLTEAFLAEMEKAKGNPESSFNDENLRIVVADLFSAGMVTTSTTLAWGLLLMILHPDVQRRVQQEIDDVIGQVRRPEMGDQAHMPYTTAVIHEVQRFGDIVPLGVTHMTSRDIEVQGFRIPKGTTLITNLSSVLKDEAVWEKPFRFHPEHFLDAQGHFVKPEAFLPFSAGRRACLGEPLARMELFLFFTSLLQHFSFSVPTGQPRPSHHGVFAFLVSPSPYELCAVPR
Sequence of Cytochrome P450 3A4 (P08684 whole entry): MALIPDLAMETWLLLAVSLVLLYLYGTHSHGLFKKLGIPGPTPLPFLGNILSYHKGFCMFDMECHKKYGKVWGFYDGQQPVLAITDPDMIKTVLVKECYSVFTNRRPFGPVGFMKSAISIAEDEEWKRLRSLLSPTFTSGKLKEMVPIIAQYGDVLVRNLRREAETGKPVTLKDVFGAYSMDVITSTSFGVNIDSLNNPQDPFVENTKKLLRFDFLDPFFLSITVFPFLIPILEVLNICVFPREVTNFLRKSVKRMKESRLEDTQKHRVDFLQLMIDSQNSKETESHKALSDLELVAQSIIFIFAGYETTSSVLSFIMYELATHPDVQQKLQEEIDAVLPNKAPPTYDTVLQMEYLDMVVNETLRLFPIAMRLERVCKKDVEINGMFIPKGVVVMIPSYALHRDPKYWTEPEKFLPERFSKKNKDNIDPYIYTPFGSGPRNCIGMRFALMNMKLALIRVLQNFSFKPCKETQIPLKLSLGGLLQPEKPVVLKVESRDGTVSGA
Sequence of Cytochrome P450 2C9 (P11712 whole entry): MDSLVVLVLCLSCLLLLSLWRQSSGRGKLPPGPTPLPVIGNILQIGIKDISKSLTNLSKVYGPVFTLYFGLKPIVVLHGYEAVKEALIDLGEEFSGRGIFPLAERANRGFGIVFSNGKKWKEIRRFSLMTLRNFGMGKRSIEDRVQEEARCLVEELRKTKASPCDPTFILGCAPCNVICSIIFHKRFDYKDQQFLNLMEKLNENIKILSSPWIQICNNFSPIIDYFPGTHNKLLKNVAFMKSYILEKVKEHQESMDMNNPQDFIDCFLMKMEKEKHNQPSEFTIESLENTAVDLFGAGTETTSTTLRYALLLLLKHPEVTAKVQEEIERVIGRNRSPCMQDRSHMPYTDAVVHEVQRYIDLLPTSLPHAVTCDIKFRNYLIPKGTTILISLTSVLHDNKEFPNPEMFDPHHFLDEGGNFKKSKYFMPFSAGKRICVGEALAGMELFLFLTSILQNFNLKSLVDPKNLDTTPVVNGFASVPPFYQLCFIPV

O=C(NCc1ccccn1)c1cc(-c2ccccc2Cl)on1
AC50 (Cytochrome P450 2C9): inconclusive
AC50 (Cytochrome P450 2D6): inconclusive
AC50 (Cytochrome P450 3A4): 15.8 µM (inconclusive)

CCOC(=O)N1CCC(NC(=O)CSc2cc(=O)n(C)c3ccccc23)CC1
EC50 [1]: > 79.4 µM (not active)
EC50 [2]: > 79.4 µM (inactive)
EC50 [3]: > 79.4 µM (not active)

COc1ccc(NC(=O)N2CC[C@@]3(CCCN(C(=O)c4cnccn4)C3)C2)cc1
AC50 (Cytochrome P450 2D6): inconclusive
AC50 (Cytochrome P450 3A4): 3.16 µM (inconclusive)

c1ccc(-n2nnc3c(N4CCOCC4)ncnc32)cc1
EC50 [4]: 6.29 µM (inconclusive)
CC50 [5]: 23.6 µM (active)
AC50 [6]: > 52 µM (inactive)
AC50 [7]: 7.67 µM (active)
AC50 [8]: > 52 µM (inactive)
EC50 [9]: 8.24 µM (active)
AC50 (HEK293 [10]): 2.47 µM (active)
AC50 [11]: 8.39 µM (active)
EC50 [12]: 7.18 µM (inconclusive)

Cc1[nH]c(O)nc1C(=O)CCCCC(=O)O
IC50 (HEK293 [13]): > 89.3 µM (inactive)
EC50 (HEK293 [14]): 22.6 µM (inactive)

CC1=C(C(=O)O)N2C(=O)[C@@H](NC(=O)CCCC(=O)O)[C@H]2SC1
IC50 [15]: 34 µM (active)
IC50 [16]: > 50 µM (inactive)

Cc1ccc(/C=C/C(=O)C2C(=O)c3ccccc3C2=O)cc1
AC50 (HEK293 [10]): 4.18 µM (active)
EC50 (Streptococcus): 9.64 µM (active)
EC50 (Streptokinase A): > 150 µM (not active)
EC50 [17]: 1.95 µM (active)

C=CCN(CC(O)c1cccc([N+](=O)[O-])c1)C(C)CCc1ccccc1 (stereo not drawn)
EC50 [18]: 3.35 µM (active)
EC50 [19]: > 195 µM (not active)

COc1ccccc1NC(=O)CC(c1ccc(OC(C)C)cc1)c1ccccc1OC (stereo not drawn)
AC50 (HEK293 [10]): 194 µM (active)
